Assay results published in patent US5208364A, “Antibiotic 5-lipoxygenase inhibitors” (Bristol-Myers Squibb Co., priority 1992, dated 1993).

Tests used:
rat 5-LPO = target: T1, rat 5-LPO (Rattus norvegicus, UniProt P12527); test: 5-LPO inhibitory activity (5-HETE produced in cell-free extract of rat basophilic leukemia RBL-1 cells, HPLC); assay type: biochemical; conditions: arachidonic acid substrate, 37° C., 5 minutes
T1 construct: produced in a cell-free extract of rat basophilic leukemia cells; endogenous in cells; host or cells: RBL-1 rat basophilic leukemia cells (ATCC CRL 1378), cell-free extract
T1 sequence (P12527 1-673): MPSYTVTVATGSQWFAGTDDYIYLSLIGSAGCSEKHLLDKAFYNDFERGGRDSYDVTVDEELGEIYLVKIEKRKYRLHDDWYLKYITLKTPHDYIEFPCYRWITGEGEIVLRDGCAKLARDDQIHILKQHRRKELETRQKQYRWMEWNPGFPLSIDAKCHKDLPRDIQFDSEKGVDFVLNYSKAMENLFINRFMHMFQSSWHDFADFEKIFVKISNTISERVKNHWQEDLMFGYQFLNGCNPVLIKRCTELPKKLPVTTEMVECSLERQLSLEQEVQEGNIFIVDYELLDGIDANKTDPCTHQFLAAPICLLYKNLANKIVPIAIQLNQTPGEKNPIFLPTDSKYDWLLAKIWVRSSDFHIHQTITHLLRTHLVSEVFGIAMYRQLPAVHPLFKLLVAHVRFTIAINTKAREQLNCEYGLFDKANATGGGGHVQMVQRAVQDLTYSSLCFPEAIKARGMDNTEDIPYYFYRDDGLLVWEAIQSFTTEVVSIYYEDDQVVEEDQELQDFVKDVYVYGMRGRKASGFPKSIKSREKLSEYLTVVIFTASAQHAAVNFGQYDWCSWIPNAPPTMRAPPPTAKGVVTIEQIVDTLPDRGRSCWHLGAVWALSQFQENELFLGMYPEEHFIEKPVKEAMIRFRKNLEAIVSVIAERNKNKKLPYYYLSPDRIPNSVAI
Procedure: The assay method employed in this manuscript is a slight modification of that published by Hook, Yacobuci, O'Connor, Lee, Kerns, Krishnan, Matson and Hesler in "Identification of the inhibitory activity of carbazomycins B and C against 5-lipoxygenase: a new activity for these compounds", J. Antibiot. (1990) 43, 1347. Rat basophilic leukemia cells […]. They were harvested by centrifugation and washed twice with […] containing I mM EDTA. The cells were resuspended in the same buffer and sonicated. The suspension was centrifuged at 13,000×g to remove cell debris and the supernatant stored at -80° C.
Enzyme assays were conducted by diluting the cell-free extract to the desired specific enzyme activity with phosphate buffer saline (PBS) containing 28.5 mM phosphate, 1 mM ethylenediamine tetraacetic acid (EDTA), 0.9 mM adenosine triphosphate (ATP) and 0.9 mM glutathione. The cell-free extract solution (110 μ1) was preincubated at 37° C. for 2.5 minutes, followed by the addition of the test sample in 20 μl of DMSO-PBS (1:9, v/v). The reaction was started by the addition of 5 μl of substrate (2 mM arachidonic acid plus 25 mM CaC12 in ethanol-water, 3:1). After incubation for 5 minutes, the reaction was terminated by the addition of 135 μl of ethanol and the solution centrifuged to remove precipitated protein. The 5-hydroxyeicosatetraenoic acid (5-HETE) in the supernatant was analyzed by HPLC as described below.
The inhibitory effect of a fermentation broth extract or a purified preparation was determined by measuring the amount of 5-hydroxyeicosatetraenoic acid (5-HETE) produced in a cell-free extract of rat basophilic leukemia cells (RBL-I cells, ATCC CRL 1378) in the presence of a test sample, arachidonic acid, adenosine triphosphate, CaC12 and glutathione. […] The concentration of 5-HETE was spectrophotometrically measured at 230 nm with a Gilson 115 UV detector and a Hewlett Packard 3396 A integrator.

[1] = Solubility (physico-chemical properties); assay type: physicochemical

Row | IC50 (rat 5-LPO) | solubility in methanol, ethanol, ethyl acetate, chloroform and dimethyl sulfoxide [1] | solubility in n-hexane [1] | solubility in water [1] | Compound
1 | 3.4 µM | soluble | slightly soluble | insoluble | CC(C)CCCCCCCOC(=O)c1cc(O)ccc1N [IA, Isodecyl 5-hydroxyanthranilate]
2 | 6.3 µM | soluble | slightly soluble | insoluble | CC(C)CCCCCCCCCOC(=O)c1cc(O)ccc1N [Compound IC, Isolauryl 5-hydroxyanthranilate]
3 | 4.9 µM | soluble | slightly soluble | insoluble | CC(C)CCCCCCCCOC(=O)c1cc(O)ccc1N [IB, Isoundecyl 5-hydroxyanthranilate]
